Six molecules from ChEMBL document CHEMBL1201862, “PubChem BioAssay data set” (2004) can be followed below.

One test concerns the target Hexokinase HKDC1 (Homo sapiens, UniProt Q2TB90). The experiment in a line: activation of HKDC1 glucose phosphorylation – biochemical, W721R variant, dose response (AID 504730). Format: functional.
The target in the next test is Hexokinase-1 (Homo sapiens, UniProt P19367). The experiment in a line: HK1 enzyme activation by HKDC1 hits – biochemical, selectivity assay for HKDC1 activator project, dose response (AID 504762). Format: functional.
Hexokinase-1, sequence (P19367 whole entry): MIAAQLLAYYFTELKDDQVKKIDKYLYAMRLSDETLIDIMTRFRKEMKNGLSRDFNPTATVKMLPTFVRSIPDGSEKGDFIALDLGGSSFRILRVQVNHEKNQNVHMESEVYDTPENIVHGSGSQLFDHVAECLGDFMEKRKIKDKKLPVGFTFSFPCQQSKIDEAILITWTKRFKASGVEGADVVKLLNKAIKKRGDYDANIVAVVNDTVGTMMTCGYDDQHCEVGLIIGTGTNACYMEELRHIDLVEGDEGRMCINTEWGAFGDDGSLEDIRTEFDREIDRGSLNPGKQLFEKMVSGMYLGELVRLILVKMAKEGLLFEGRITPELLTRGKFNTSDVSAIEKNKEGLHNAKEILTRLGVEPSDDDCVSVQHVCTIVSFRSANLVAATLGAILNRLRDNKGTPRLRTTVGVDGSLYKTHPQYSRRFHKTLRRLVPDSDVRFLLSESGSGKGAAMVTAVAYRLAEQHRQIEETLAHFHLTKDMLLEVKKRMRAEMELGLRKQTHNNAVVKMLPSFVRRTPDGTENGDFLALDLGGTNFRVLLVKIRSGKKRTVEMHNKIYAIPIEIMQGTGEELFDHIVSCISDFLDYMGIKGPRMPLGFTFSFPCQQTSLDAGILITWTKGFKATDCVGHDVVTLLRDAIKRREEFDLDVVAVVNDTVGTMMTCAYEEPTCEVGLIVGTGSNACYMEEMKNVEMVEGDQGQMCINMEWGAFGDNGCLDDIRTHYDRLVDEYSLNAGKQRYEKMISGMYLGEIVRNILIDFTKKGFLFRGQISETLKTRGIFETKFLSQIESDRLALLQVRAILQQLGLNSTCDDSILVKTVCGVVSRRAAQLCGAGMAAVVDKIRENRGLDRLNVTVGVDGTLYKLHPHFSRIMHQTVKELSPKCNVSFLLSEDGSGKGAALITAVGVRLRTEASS
For test [1], the target named is T1, Cannabinoid receptor 2 (Homo sapiens, UniProt P34972). The test can be described thus: SAR analysis of agonists of the Cannabinoid Receptor 2 using an Image-Based Assay - Set 2. [Related pubchem assays (depositor defined):AID1961, AID1965]. The format is functional.
T1 sequence (P34972 whole entry): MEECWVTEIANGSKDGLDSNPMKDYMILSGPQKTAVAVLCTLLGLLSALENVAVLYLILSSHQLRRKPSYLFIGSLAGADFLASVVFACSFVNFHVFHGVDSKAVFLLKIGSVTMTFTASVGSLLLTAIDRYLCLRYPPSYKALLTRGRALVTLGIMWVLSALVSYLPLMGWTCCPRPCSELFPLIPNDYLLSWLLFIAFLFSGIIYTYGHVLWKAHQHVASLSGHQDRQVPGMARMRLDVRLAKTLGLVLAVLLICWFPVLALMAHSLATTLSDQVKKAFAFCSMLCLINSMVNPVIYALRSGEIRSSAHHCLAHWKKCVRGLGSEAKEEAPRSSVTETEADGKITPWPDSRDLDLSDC
The target of test [2] is T2, G-protein coupled receptor 35 (Homo sapiens, UniProt Q9HC97). The test can be described thus: SAR analysis of Agonists of the GPR35 Receptor using an Image-Based Assay - Set 3. [Related pubchem assays (depositor defined):AID1961, AID1965]. Format: functional.
T2 sequence (Q9HC97 whole entry): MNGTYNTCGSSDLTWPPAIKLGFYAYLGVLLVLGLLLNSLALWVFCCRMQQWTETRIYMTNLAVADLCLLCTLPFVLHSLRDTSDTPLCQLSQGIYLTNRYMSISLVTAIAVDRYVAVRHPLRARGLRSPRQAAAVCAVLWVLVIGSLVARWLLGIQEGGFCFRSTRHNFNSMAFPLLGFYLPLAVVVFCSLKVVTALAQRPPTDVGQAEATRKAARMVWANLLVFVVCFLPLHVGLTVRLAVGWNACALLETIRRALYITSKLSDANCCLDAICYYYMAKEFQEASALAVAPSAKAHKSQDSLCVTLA
Test [3] addresses T3, Cannabinoid receptor 1 (Homo sapiens, UniProt P21554). The test can be described thus: SAR analysis of antagonists of the Cannabinoid Receptor 1 using an Image-Based Assay - Set 3. [Related pubchem assays (depositor defined):AID1961, AID1965]. The format is functional.
Test [4] addresses G-protein coupled receptor 55 (Homo sapiens, UniProt Q9Y2T6). The experiment in a line: SAR analysis of selective Agonists of GPR55 using an Image-Based Assay - Set 2. [Related pubchem assays (depositor defined):AID1961, AID1965]. The format is functional.
The target in test [5] is T1, Cannabinoid receptor 2. The experiment in a line: SAR analysis of antagonists of the Cannabinoid Receptor 2 using an Image-Based Assay - Set 2. [Related pubchem assays (depositor defined):AID1961, AID1965]. Format: functional.
Test [6] has as its target T2, G-protein coupled receptor 35. The test can be described thus: SAR analysis of Antagonists of the GPR35 Receptor using an Image-Based Assay - Set 4. [Related pubchem assays (depositor defined):[…]]. Format: functional.
In test [7] the target is T3, Cannabinoid receptor 1. The experiment in a line: SAR analysis of agonists of the Cannabinoid Receptor 1 using an Image-Based Assay - Set 3. [Related pubchem assays (depositor defined):AID1961, AID1965]. Format: functional.
Another test concerns the target Mucolipin-3 (Homo sapiens, UniProt Q8TDD5). The test can be described thus: Fluorescence counterscreen assay for […] agonists: dose response cell-based high-throughput screening assay to identify agonists of the transient receptor potential channel ML3 (TRPML3). [Related pubchem assays: 1424, 1448 ]. The format is functional.
For the next test, the target named is Ion channel NompC (Danio rerio, UniProt Q7T1G6). The test can be described thus: Dose response cell-based high-throughput screening assay for agonists of the transient receptor potential channel N1 (TRPN1). [Related pubchem assays (depositor defined):AID1424, AID1448]. Format: functional.
The target in test [8] is T4, High affinity choline transporter 1 (Homo sapiens, UniProt Q9GZV3).
T4 sequence (Q9GZV3 whole entry): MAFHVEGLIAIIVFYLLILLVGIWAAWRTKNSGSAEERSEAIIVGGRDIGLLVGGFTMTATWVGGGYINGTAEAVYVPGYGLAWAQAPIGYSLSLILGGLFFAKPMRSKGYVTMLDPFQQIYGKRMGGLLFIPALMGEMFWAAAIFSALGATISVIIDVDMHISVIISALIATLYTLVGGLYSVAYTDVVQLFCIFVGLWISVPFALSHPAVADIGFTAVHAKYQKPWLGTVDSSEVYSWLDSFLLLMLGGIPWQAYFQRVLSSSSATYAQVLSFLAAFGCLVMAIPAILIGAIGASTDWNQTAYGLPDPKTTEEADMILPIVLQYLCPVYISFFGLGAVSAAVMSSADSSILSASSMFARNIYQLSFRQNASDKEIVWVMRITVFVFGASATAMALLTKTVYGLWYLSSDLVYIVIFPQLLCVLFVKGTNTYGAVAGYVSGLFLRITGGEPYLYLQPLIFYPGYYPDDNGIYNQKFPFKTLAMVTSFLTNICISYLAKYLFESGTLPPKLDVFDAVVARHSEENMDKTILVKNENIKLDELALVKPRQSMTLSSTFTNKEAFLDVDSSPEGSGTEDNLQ
The experiment in a line: human choline transporter blockers, potency – cell-based, 5-point CRC, membrane potential dye, dose response (AID 504840). The format is functional.

Test [9] has as its target DNA damage-inducible transcript 3 protein (Mus musculus, UniProt P35639). Format: functional, Cricetulus griseus.
A further test has as its target T5, Coagulation factor XII (Homo sapiens, UniProt P00748).
T5 sequence (P00748 whole entry): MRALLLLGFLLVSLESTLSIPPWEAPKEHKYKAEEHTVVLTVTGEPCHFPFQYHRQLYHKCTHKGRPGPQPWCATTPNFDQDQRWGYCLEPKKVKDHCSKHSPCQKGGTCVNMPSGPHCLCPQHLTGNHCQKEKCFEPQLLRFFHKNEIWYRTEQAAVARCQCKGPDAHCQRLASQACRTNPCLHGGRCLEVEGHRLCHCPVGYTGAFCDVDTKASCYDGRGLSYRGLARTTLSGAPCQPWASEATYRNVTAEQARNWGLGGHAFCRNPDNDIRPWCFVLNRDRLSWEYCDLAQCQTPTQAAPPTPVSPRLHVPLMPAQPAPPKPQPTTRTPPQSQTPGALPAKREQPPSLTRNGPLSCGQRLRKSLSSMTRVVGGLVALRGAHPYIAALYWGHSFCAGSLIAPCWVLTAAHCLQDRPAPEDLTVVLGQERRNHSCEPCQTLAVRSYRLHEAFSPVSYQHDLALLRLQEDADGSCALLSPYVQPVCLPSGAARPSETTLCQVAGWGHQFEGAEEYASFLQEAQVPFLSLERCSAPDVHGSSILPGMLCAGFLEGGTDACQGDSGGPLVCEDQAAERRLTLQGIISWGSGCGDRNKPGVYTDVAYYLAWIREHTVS
The test can be described thus: Factor XIIa Dose Response Confirmation from Single Well HTS. [Related pubchem assays (depositor defined):AID701]. Format: functional.

The target of test [10] is Sphingosine 1-phosphate receptor 4 (Homo sapiens, UniProt O95977). The test can be described thus: Fluorescence dose response cell-based high throughput screening assay for agonists of the Sphingosine 1-Phosphate Receptor 4 (S1P4). [Related pubchem assays: 1509 (Primary screen.), 1523 (Confirmation screen in triplicates.)]. Format: functional.
Sphingosine 1-phosphate receptor 4, sequence (O95977 whole entry): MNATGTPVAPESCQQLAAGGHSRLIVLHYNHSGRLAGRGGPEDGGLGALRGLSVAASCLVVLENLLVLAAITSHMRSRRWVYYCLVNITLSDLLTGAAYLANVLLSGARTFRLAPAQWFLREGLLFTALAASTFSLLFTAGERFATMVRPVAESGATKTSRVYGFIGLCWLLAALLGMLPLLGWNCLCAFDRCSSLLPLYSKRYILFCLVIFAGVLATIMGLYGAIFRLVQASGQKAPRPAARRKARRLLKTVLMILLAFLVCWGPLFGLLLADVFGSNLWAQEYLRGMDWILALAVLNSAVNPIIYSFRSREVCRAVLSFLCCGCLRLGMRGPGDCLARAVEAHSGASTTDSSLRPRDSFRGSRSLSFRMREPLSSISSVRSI
Test [11] concerns the target Sphingosine 1-phosphate receptor 1 (Homo sapiens, UniProt P21453). The test can be described thus: Fluorescence-based counterscreen assay for S1P4 agonists: Cell-based dose response high throughput screening assay to identify agonists of the Sphingosine 1-Phosphate Receptor 1 (S1P1). [Related pubchem assays (depositor defined):AID1509, AID1523, AID1801, AID463107, AID463118, AID463119, AID463122, AID463123, AID463129, AID463225, AID504400, AID504460]. Format: functional.

The structures appear in SMILES notation. Active and inactive are the calls of the source.

T3 sequence (P21554 whole entry): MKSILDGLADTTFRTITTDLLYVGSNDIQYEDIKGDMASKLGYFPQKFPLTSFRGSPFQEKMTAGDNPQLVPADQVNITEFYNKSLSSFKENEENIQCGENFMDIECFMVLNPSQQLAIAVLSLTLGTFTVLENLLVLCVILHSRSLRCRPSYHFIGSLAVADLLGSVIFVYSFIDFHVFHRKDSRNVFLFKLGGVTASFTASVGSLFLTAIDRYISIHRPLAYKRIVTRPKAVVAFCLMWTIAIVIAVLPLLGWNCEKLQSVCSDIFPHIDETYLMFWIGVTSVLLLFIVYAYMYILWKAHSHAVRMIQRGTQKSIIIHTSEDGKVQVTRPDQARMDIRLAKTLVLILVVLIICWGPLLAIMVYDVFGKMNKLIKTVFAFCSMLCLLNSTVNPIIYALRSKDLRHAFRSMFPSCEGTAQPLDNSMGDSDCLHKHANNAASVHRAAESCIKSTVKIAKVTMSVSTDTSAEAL
Hexokinase HKDC1, sequence (Q2TB90 whole entry): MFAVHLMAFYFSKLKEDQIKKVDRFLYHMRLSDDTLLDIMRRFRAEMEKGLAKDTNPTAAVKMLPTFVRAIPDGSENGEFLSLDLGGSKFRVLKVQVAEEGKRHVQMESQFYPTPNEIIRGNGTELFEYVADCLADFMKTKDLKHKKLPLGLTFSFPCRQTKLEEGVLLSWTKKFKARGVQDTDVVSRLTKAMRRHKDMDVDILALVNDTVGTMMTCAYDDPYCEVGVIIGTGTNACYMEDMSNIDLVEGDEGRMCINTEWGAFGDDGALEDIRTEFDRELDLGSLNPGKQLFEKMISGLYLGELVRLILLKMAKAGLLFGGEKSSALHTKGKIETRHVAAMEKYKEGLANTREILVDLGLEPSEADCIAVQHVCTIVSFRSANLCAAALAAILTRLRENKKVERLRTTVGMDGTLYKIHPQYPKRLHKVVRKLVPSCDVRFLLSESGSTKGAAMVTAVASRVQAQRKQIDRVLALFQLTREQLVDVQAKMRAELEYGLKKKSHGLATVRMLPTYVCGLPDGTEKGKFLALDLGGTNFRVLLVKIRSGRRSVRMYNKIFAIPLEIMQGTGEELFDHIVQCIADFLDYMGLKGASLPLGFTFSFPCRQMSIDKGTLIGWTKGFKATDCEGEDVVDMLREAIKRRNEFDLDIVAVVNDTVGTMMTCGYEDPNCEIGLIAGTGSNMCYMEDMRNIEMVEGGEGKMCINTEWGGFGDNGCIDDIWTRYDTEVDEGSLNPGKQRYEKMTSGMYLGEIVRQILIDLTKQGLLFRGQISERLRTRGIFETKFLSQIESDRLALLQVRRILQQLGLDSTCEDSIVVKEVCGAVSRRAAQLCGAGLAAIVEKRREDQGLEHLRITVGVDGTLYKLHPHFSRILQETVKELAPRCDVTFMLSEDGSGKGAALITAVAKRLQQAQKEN
DNA damage-inducible transcript 3 protein, sequence (P35639 whole entry): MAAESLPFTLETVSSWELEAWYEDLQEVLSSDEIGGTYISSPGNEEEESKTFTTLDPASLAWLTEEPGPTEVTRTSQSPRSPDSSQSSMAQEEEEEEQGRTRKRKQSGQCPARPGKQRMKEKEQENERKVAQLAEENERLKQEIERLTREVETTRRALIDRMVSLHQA
Sphingosine 1-phosphate receptor 1, sequence (P21453 whole entry): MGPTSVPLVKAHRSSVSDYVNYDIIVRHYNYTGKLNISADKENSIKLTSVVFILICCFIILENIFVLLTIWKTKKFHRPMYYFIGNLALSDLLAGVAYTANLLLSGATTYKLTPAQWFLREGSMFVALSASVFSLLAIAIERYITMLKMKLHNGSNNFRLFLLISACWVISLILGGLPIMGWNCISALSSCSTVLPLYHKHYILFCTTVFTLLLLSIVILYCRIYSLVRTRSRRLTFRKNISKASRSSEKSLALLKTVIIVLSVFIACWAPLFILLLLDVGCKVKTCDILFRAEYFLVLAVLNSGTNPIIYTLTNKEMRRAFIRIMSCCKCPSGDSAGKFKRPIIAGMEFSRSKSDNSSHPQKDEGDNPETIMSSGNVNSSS
G-protein coupled receptor 55, sequence (Q9Y2T6 whole entry): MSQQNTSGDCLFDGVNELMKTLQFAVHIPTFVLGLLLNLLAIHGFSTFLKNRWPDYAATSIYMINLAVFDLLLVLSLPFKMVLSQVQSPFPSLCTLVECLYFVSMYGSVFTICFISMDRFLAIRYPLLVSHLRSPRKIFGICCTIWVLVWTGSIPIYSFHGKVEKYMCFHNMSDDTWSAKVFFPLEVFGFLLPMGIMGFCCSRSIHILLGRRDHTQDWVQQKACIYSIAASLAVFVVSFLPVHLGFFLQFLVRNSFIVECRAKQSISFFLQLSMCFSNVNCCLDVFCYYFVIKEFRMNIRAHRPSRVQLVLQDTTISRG
Mucolipin-3, sequence (Q8TDD5 whole entry): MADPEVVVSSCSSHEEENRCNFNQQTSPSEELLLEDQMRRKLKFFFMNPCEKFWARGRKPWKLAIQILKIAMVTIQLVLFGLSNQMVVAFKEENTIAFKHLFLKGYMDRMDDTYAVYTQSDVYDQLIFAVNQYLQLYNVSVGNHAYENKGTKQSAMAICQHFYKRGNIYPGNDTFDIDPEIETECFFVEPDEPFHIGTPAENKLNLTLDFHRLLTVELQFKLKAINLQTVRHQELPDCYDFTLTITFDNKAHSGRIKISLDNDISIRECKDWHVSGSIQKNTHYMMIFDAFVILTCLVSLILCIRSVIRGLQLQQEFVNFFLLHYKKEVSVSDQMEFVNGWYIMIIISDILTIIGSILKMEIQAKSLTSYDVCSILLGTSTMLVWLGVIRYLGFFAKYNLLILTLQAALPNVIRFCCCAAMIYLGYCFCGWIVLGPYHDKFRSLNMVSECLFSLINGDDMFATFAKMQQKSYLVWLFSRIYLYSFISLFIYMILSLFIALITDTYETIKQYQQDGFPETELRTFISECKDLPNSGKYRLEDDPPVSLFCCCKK

Take `CSc1nc(N)nc2c1ncn2CC(=O)N[C@H](C)c1cccc2ccccc12`: the EC50 – broadly, the concentration at which the effect is half-maximal – is 9.1 µM (active) on Hexokinase HKDC1 and 11.8 µM (active) at Hexokinase-1.
Take `O=C(Nc1cccc(S(=O)(=O)N2CCOCC2)c1)c1cc2c(s1)CCCC2`: the EC50 (at Cannabinoid receptor 2 [1]; in test [2]; in test [4]; on Cannabinoid receptor 1 [7]) was > 32 µM (inactive) in each case. In addition, the IC50 (at Cannabinoid receptor 1 [3]; on Cannabinoid receptor 2 [5]; in test [6]) was > 32 µM (inactive) in each case.
In the case of `CC(C)(C)S(=O)(=O)/C(C#N)=N/Nc1ccc(Cl)cc1`, the figures for the EC50 at Mucolipin-3 and on Ion channel NompC were > 29.9 µM (not active) and > 29.9 µM (inactive), respectively. In test [8], the half-maximal inhibitory concentration (IC50) (in general, the concentration that gives 50% inhibition) was 1.32 µM (active).
For `CCNC(=S)N/N=C/c1cc(Br)cc(Br)c1OC`, the “Absolute IC50 (CHOP)” value in test [9] was 10 µM.
`Cc1cccc(C)c1OCC(=O)N/N=C/c1cc2c(cc1[N+](=O)[O-])OCO2`: the IC50 at Coagulation factor XII is > 50 µM (inactive).
For the molecule `NC(=S)c1cc2ccc(O)cc2oc1=O`, the EC50 was 7.68 µM (active) in [10] and 52.9 µM (inactive) in test [11].
